From US8877778B2, “Benzofurane compounds” (Hoffmann-La Roche Inc., priority 2010, dated 2014)

Columns and labels:
human D2 receptor = human D2 receptor (Homo sapiens (Human), UniProt P14416); experiment: Radioligand binding ([3H]-spiperone) to cloned receptors expressed in HEK-293 EBNA cells; details: HEK293 EBNA cell membranes expressing human D2
Protocol: (§1) HEK293 EBNA cells were transiently transfected with expression plasmids encoding for the human D2 or D3 or for the human 5-HT2A receptor, respectively. The cells were harvested 48 h post-transfection, washed three times with cold PBS and stored at −80° C. prior to use. The pellet was suspended in cold 50 mM Tris-HCl buffer comprising 10 mM EDTA (pH 7.4) and was homogenized with a Polytron (Kinematica AG, Basel, Switzerland) for 20-30 sec at 12.000 rpm. After centrifugation at 48.000×g for 30 min at 4° C., the pellet was resuspended in cold 10 mM Tris-HCl buffer comprising 0.1 mM EDTA (pH 7.4), homogenized, and centrifuged as above. This pellet was further resuspended in a smaller volume of ice cold 10 mM Tris-HCl buffer comprising 0.1 mM EDTA (pH 7.4) and homogenized with a Polytron for 20-30 sec at 12.000 rpm. The protein content of this homogenate was determined with the Bio-Rad (Bradford) Protein Assay (Biorad Laboratories GmbH, München, Germany) according to the instructions of the manufacturer using gamma globulin as the standard. This homogenate was stored at −80° C. in aliquots and thawed immediately prior to use.
(§2) Aliquots of membrane preparations were thawed at RT, resupended in assay buffer (D2, D3: 50 mM Tris-HCl, 120 mM NaCl, 5 mM MgCl2, 1 mM EDTA, 5 mM KCl, 1.5 mM CaCl2, pH=7.4; 5-HT2A: 50 mM Tris-HCl, 10 mM MgCl2, 1 mM EGTA, pH=7.4), homogenized with a Polytron for 20-30 sec at 12.000 rpm and adjusted to a final concentration of approximately 7.5 μg protein/well (D2, D3) and 15 μg protein/well (5-HT2A), respectively.
(§3) The binding affinity (Ki) of the compounds was determined using radioligand binding. Membranes were incubated in a total volume of 200 μl with a fixed concentration of radioligand (final concentration approximately 0.7 nM [^3H]-spiperone for D2, 0.5 nM [^3H]-spiperone for D3, and 1.1 nM [^3H]-ketanserin for 5-HT2A) and ten concentrations of test compound in ranging between 10 μM-0.1 nM for 1 h at RT. At the end of the incubation, the reaction mixtures were filtered on to unifilter 96-well white microplates with bonded GF/C filters (Packard BioScience, Zürich, Switzerland; preincubated for 1 h in 0.1% polyethylenimine (PEI) in assay buffer) with a Filtermate 196 harvester (Packard BioScience) and washed 3 times with cold assay buffer. The nonspecific binding was determined with equally composed reaction mixtures in the presence of 10 μM unlabelled spiperone. Per well 45 μl of Microscint 40 (Perkin Elmer, Schwerzenbach, Switzerland) was added, plates for sealed, shaken for 20 min and counted for 3 min on a Topcount Microplate Scintillation Counter (Can berra Packard SA, Zürich, Switzerland) with quenching correction.
(§4) The CPM value for each duplicate of a concentration of competing compound was averaged (y1), then the % specific binding was calculated according to the equation (((y1−non-specific)/(total binding−non-specific))×100). Graphs were plotted with the % specific binding using XLfit, a curve fitting program that iteratively plots the data using Levenberg-Marquardt algorithm. The single site competition analysis equation used was y=A+((B−A)/(1+((x/C)D))), where y is the % specific binding, A is the minimum y, B is the maximum y, C is the IC50, x is the log 10 of the concentration of the competing compound and D is the slope of the curve (the Hill Coefficient). […] The affinity constant (Ki) was calculated using the Cheng-Prusoff equation Ki=(IC50/1+([L]/Kd), where [L] is the concentration of radioligand and Kd is the dissociation constant of the radioligand at the receptor as determined by the saturation isotherm.

human D3 receptor = human D3 receptor (Homo sapiens (Human), UniProt P35462); experiment: as above; details: HEK293 EBNA cell membranes expressing human D3
Protocol: as §1, §2, §3, §4

human 5-HT2A receptor = human 5-HT2A receptor (Homo sapiens (Human), UniProt P28223); experiment: Radioligand binding ([3H]-ketanserin) to cloned receptors expressed in HEK-293 EBNA cells; details: HEK293 EBNA cell membranes expressing human 5-HT2A
Protocol: as §1, §2, §3, §4

human 5-HT2A receptor, sequence (P28223 whole entry): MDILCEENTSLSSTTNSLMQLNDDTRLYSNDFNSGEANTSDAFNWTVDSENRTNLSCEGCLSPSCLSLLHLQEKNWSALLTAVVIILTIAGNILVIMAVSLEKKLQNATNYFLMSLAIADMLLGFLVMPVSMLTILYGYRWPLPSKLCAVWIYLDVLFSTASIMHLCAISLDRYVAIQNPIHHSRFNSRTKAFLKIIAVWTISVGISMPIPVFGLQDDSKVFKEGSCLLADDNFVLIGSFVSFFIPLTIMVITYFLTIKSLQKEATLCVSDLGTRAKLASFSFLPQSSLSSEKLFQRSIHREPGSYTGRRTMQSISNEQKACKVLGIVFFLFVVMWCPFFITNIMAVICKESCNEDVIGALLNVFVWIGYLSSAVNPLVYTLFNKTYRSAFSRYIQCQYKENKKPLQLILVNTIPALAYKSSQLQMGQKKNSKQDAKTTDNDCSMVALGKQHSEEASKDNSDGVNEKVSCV
human D2 receptor, sequence (P14416 whole entry): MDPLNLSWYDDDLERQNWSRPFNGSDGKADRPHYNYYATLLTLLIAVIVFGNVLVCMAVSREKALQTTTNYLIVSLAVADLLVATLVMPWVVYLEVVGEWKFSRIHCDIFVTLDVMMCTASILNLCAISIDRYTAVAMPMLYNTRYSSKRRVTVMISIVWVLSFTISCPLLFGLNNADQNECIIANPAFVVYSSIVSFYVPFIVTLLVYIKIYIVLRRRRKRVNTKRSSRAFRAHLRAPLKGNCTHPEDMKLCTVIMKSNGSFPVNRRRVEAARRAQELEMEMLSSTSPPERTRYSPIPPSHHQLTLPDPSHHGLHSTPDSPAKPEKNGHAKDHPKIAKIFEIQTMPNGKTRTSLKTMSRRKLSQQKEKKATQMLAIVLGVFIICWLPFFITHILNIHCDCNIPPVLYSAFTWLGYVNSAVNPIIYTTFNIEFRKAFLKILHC
human D3 receptor, sequence (P35462 whole entry): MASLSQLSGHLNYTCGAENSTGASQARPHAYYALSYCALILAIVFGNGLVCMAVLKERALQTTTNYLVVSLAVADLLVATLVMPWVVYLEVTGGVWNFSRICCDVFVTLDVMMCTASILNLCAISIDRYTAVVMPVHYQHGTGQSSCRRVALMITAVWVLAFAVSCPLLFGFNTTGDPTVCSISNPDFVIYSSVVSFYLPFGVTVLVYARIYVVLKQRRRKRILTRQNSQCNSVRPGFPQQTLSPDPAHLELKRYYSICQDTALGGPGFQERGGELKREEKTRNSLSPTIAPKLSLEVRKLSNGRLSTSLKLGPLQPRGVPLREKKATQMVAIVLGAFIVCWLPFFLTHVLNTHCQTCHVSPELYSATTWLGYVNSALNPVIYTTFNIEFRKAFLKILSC

Structure (SMILES) | Ki (human D2 receptor) | Ki (human D3 receptor) | Ki (human 5-HT2A receptor) | melting point
O=S(=O)(N[C@H]1CC[C@H](CCN2CCC(c3cccc4c3CCO4)CC2)CC1)c1ccccc1 [Example 49, trans-N-(4-{2-[4-(2,3-Dihydro-benzofuran-4-yl)-piperidin-1-yl]-ethyl}-cyclohexyl)-benzenesulfonamide] | 138 nM | 5.1 nM | 79.7 nM | 130 °C
COC(CC(=O)N[C@H]1CC[C@H](CCN2CCC(c3cccc4c3CCO4)CC2)CC1)OC [Example 82, trans-N-(4-{2-[4-(2,3-Dihydro-benzofuran-4-yl)-piperidin-1-yl]ethyl}-cyclohexyl)-3,3-dimethoxy-propionamide] | 366 nM | 4.78 nM | 69.9 nM | 240 °C
CC(C)(O)C(=O)N[C@H]1CC[C@H](CCN2CCC(c3cccc4c3CCO4)CC2)CC1 [Example 38, trans-N-(4-{2-[4-(2,3-Dihydro-benzofuran-4-yl)-piperidin-1-yl]-ethyl}-cyclohexyl)-2-hydroxy-2-methyl-propionamide] | 495 nM | 34.9 nM | 8 nM | 163 °C
CC(C)CCC(=O)N[C@H]1CC[C@H](CCN2CCC(c3cccc4c3CCO4)CC2)CC1 [Example 75, 4-Methyl-pentanoic acid trans-(4-{2-[4-(2,3-dihydro-benzofuran-4-yl)-piperidin-1-yl]-ethyl}-cyclohexyl)-amide] | 1070 nM | 9.97 nM | 72.9 nM | 188 °C
O=CN[C@H]1CC[C@H](CCN2CCC(c3cccc4c3CCO4)CC2)CC1 [Example 87, trans-N-(4-{2-[4-(2,3-Dihydro-benzofuran-4-yl)-piperidin-1-yl]-ethyl}-cyclohexyl)-formamide] | 167 nM | 11.5 nM | 107 nM | 142 °C
CN(C)C(=O)CCC(=O)N[C@H]1CC[C@H](CCN2CCC(c3cccc4c3CCO4)CC2)CC1 [Example 63, trans-N-(4-{2-[4-(2,3-Dihydro-benzofuran-4-yl)-piperidin-1-yl]ethyl}-cyclohexyl)-N′,N′-dimethyl-succinamide] | 1060 nM | 15.5 nM | 89.6 nM | 205 °C
CS(=O)(=O)c1ccc(C(=O)N[C@H]2CC[C@H](CCN3CCC(c4cccc5c4CCO5)CC3)CC2)s1 [Example 70, 5-Methanesulfonyl-thiophene-2-carboxylic acid trans-(4-{2-[4-(2,3-dihydro-benzofuran-4-yl)-piperidin-1-yl]-ethyl}-cyclohexyl)-amide] | 195 nM | 6.63 nM | 31.4 nM | 255 °C
O=C(N[C@H]1CC[C@H](CCN2CCC(c3cccc4c3CCO4)CC2)CC1)c1ccc(N2CCCCC2)cc1 [Example 56, trans-N-(4-{2-[4-(2,3-Dihydro-benzofuran-4-yl)-piperidin-1-yl]-ethyl}-cyclohexyl)-4-piperidin-1-yl-benzamide] | 2270 nM | 72.5 nM | 137 nM | 248 °C
CCC(=O)N[C@H]1CC[C@H](CCN2CCC(c3cccc4c3CCO4)CC2)CC1 [Example 13, trans-N-(4-{2-[4-(2,3-Dihydro-benzofuran-4-yl)-piperidin-1-yl]-ethyl}-cyclohexyl)-propionamide] | 346 nM | 4.6 nM | 34.3 nM | 192 °C
O=C(N[C@H]1CC[C@H](CCN2CCC(c3cccc4c3CCO4)CC2)CC1)c1ccccc1 [Example 17, trans-N-(4-{2-[4-(2,3-Dihydro-benzofuran-4-yl)-piperidin-1-yl]-ethyl}-cyclohexyl)-benzamide] | 319 nM | 4.2 nM | 11.4 nM | 220 °C
CC(=O)N[C@H]1CC[C@H](CCN2CCC(c3cccc4occc34)CC2)CC1 [Example 1, trans-N-{4-[2-(4-Benzofuran-4-yl-piperidin-1-yl)-ethyl]-cyclohexyl}-acetamide] | 187 nM | 2.9 nM | 6.8 nM | 167 °C
CN(C)C(=O)N[C@H]1CC[C@H](CCN2CCC(c3cccc4c3CCO4)CC2)CC1 [Example 83, trans-3-(4-{2-[4-(2,3-Dihydro-benzofuran-4-yl)-piperidin-1-yl]-ethyl}-cyclohexyl)-1,1-dimethyl-urea] | 69.9 nM | 44.2 nM | 121 nM | 260 °C
O=C(N[C@H]1CC[C@H](CCN2CCC(c3cccc4c3CCO4)CC2)CC1)c1ccc2c(c1)OCO2 [Example 79, Benzo[1,3]dioxole-5-carboxylic acid trans-(4-{2-[4-(2,3-dihydro-benzofuran-4-yl)-piperidin-1-yl]-ethyl}-cyclohexyl)-amide] | 809 nM | 3.5 nM | 23 nM | 233 °C
CS(=O)(=O)N[C@H]1CC[C@H](CCN2CCC(c3cccc4c3CCO4)CC2)CC1 [Example 47, trans-N-(4-{2-[4-(2,3-Dihydro-benzofuran-4-yl)-piperidin-1-yl]-ethyl}-cyclohexyl)-methanesulfonamide] | 328 nM | 10.1 nM | 35.2 nM | 152 °C
CN(C)S(=O)(=O)N[C@H]1CC[C@H](CCN2CCC(c3cccc4c3CCO4)CC2)CC1 [Example 51, N′-(trans-4-{2-[4-(2,3-Dihydro-benzofuran-4-yl)-piperidin-1-yl]-ethyl}-cyclohexyl)-N,N-dimethylsulfamide] | 251 nM | 9.9 nM | 19.5 nM | 122 °C
O=C(N[C@H]1CC[C@H](CCN2CCC(c3cccc4c3CCO4)CC2)CC1)C1CCOC1 (mixture of isomers) [Example 52, (RS)-Tetrahydro-furan-3-carboxylic acid trans-(4-{2-[4-(2,3-dihydro-benzofuran-4-yl)-piperidin-1-yl]-ethyl}-cyclohexyl)-amide] | 135 nM | 5.5 nM | 24.6 nM | 211 °C
O=C(N[C@H]1CC[C@H](CCN2CCC(c3ccc(F)c4occc34)CC2)CC1)C1CCOCC1 [Example 65, Tetrahydro-pyran-4-carboxylic acid trans-(4-{2-[4-(7-fluoro-benzofuran-4-yl)-piperidin-1-yl]-ethyl}-cyclohexyl)-amide] | 361 nM | 34 nM | 11.6 nM | 208 °C
O=C(CCO)N[C@H]1CC[C@H](CCN2CCC(c3cccc4c3CCO4)CC2)CC1 [Example 27, trans-N-(4-{2-[4-(2,3-Dihydro-benzofuran-4-yl)-piperidin-1-yl]-ethyl}-cyclohexyl)-3-hydroxy-propionamide] | 344 nM | 6.5 nM | 61.8 nM | 158 °C
CC(=O)N[C@H]1CC[C@H](CCN2CCC(c3ccc(F)c4occc34)CC2)CC1 [Example 64, trans-N-(4-{2-[4-(7-Fluoro-benzofuran-4-yl)-piperidin-1-yl]-ethyl}-cyclohexyl)-acetamide] | 404 nM | 9.72 nM | 33.3 nM | 203.5 °C
O=C(CCC(F)(F)F)N[C@H]1CC[C@H](CCN2CCC(c3cccc4c3CCO4)CC2)CC1 [Example 74, trans-N-(4-{2-[4-(2,3-Dihydro-benzofuran-4-yl)-piperidin-1-yl]ethyl}-cyclohexyl)-4,4,4-trifluoro-butyramide] | 253 nM | 7.64 nM | 119 nM | 200 °C
